Measured values reported in patent publication US20240140938A1, “PREPARATION OF TETRAHYDROINDAZOLE DERIVATIVES AS NOVEL DIACYLGLYCERIDE O-ACYLTRANSFERASE 2 INHIBITORS” (MERCK SHARP & DOHME LLC, priority 2020, published 2024).

What follows are molecules tested against human DGAT2 (hDGAT2) (Homo sapiens (Human), UniProt Q96PD7) (assay: DGAT2 Enzymatic Activity Assay). Conditions: hDGAT2 Sf-9 membrane prep; 13C18-triolein product by LC/MS/MS; 25 μM diolein, 5 μM 13C oleoyl-CoA.
Format: biochemical
Procedure: Sf-9 insect cells were maintained in Grace's insect cell culture medium with 10% heated-inactivated fetal bovine serum, 1% Pluronic F-68 and 0.14 μg/ml Kanamycine sulfate at 27° C. in a shaker incubator. After infection with untagged baculovirus expressing human DGAT2 (hDGAT2) at multiplicity of infection (MOI) 3 for 48 hours, cells were harvested. Cell pellets were suspended in buffer containing 10 mM Tris-HCl pH 7.5, 1 mM EDTA, 250 mM sucrose and Complete Protease Inhibitor Cocktail (Sigma Aldrich), and sonicated on ice. Cell debris were removed by centrifugation at 2000×g for 15 minutes. Membrane fractions were isolated by ultracentrifugation (100,000×g), resuspended in the same buffer, and frozen (−80° C.) for later use. The protein concentration was determined with the Pierce™ BCA Protein Assay Kit (Thermo Fisher Scientific).
LC/MS/MS analyses were performed using Thermal Fisher's LX4-TSQ Vantage system. This system consists of an Agilent binary high-performance liquid chromatography (HPLC) pump and a TSQ Vantage triple quadrupole MS/MS instrument. For each sample, 2 μL samples from the top organic layer of in-plate liquid-liquid extraction were injected onto a Thermo Betabasic C4 column (2.1 mm×20 mm, 5 μm particle size). The samples were then eluted using the following conditions; mobile phase: Isopropanol: acetonitrile/10 mM ammonium formate=50/35/15 (v/v/v), flow rate: 0.8 mL/min, temperature: 25° C. Data was acquired in positive mode using a heated electrospray ionization (HESI) interface. […] The peak area was integrated by Xcalibur Quan software. The ratio between the ^13C18triolein generated in the reaction and spiked in internal standard ^13C21-triolein was used to generate percentage inhibition and IC50 values. Compound percentage inhibition was calculated by the following formula: Inhibition %=1−[(compound response−low control)/(high control−low control)]×100%.
DGAT2 activity was determined by measuring the amount of enzymatic product ^13C18-triolein (^13C-1,2,3-Tri(cis-9-octadecenoyl)glycerol) using the membrane prep mentioned above. The assay was carried out in ABgene 384-well assay plates in a final volume of 25 μL at rt.

Chain of human DGAT2 (hDGAT2) (Q96PD7 whole entry): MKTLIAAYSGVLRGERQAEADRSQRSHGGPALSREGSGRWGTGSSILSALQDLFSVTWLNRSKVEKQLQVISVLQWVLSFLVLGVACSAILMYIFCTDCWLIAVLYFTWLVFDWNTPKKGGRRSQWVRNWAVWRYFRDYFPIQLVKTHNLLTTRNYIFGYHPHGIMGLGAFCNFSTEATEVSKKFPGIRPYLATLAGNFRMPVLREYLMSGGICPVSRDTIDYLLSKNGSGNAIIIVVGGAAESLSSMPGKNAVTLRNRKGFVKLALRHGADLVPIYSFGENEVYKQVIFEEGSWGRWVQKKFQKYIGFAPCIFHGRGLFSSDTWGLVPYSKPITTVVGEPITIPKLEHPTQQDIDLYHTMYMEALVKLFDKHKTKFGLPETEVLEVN

Going from CC(C)n1nc(-c2cc(OC(F)F)ccc2F)c2c1C[C@H](C(=O)N[C@]1(C)CCS(=O)(=O)C1)CC2 [Example 29, (R)-3-(5-(difluoromethoxy)-2-fluorophenyl)-1-isopropyl-N-((R)-3-methyl-1,1-dioxidotetrahydrothiophen-3-yl)-4,5,6,7-tetrahydro-1H-indazole-6-carboxamide] to CC(C)n1nc(-c2cc(OC(F)F)ccc2F)c2c1C[C@H](C(=O)NC1(C)CCS(=O)(=O)CC1)CC2 [Example 30, (R)-3-(5-(difluoromethoxy)-2-fluorophenyl)-1-isopropyl-N-(4-methyl-1,1-dioxidotetrahydro-2H-thiopyran-4-yl)-4,5,6,7-tetrahydro-1H-indazole-6-carboxamide], the IC50 falls from 60.1 nM to 5.5 nM (11-fold).

Going from CC(C)n1nc(-c2cccc(OC(F)F)c2)c2c1C[C@H](C(=O)NC1(C)CCS(=O)(=O)CC1)CC2 [Example 31, (R)-3-(3-(difluoromethoxy)phenyl)-1-isopropyl-N-(4-methyl-1,1-dioxidotetrahydro-2H-thiopyran-4-yl)-4,5,6,7-tetrahydro-1H-indazole-6-carboxamide] to CC(C)n1nc(-c2cccc(OC(F)(F)C(F)F)c2)c2c1C[C@H](C(=O)NC1(C)CCS(=O)(=O)CC1)CC2 [Example 36, (R)-1-isopropyl-N-(4-methyl-1,1-dioxidotetrahydro-2H-thiopyran-4-yl)-3-(3-(1,1,2,2-tetrafluoroethoxy)phenyl)-4,5,6,7-tetrahydro-1H-indazole-6-carboxamide], the IC50 rises from 24.7 nM to 353 nM (14-fold).

First: CC(C)n1nc(-c2cccc(OC3CC3)c2)c2c1C[C@H](C(=O)NC1(C)CCS(=O)(=O)CC1)CC2 [Example 32, (R)-3-(3-cyclopropoxyphenyl)-1-isopropyl-N-(4-methyl-1,1-dioxidotetrahydro-2H-thiopyran-4-yl)-4,5,6,7-tetrahydro-1H-indazole-6-carboxamide]
Second: CCOc1cccc(-c2nn(C(C)C)c3c2CC[C@@H](C(=O)NC2(C)CCS(=O)(=O)CC2)C3)c1 [Example 33, (R)-3-(3-ethoxyphenyl)-1-isopropyl-N-(4-methyl-1,1-dioxidotetrahydro-2H-thiopyran-4-yl)-4,5,6,7-tetrahydro-1H-indazole-6-carboxamide]
The IC50 of the first is 8.8-fold higher: 29.1 nM for the first, 3.3 nM for the second. The second is the more potent here.

Going from CCOc1cc(-c2nn(C(C)C)c3c2CC[C@@H](C(=O)NC2(C)CS(=O)(=O)C2)C3)c(F)cn1 [Example 34, (R)-3-(2-ethoxy-5-fluoropyridin-4-yl)-1-isopropyl-N-(3-methyl-1,1-dioxidothietan-3-yl)-4,5,6,7-tetrahydro-1H-indazole-6-carboxamide] to CC(C)n1nc(-c2cc(OCC(F)(F)F)ncc2F)c2c1C[C@H](C(=O)NC1(C)CS(=O)(=O)C1)CC2 [Example 43, (R)-3-(5-fluoro-2-(2,2,2-trifluoroethoxy)pyridin-4-yl)-1-isopropyl-N-(3-methyl-1,1-dioxidothietan-3-yl)-4,5,6,7-tetrahydro-1H-indazole-6-carboxamide], the IC50 falls from 117 nM to 14.1 nM (8.3-fold).

Compared with CC(C)n1nc(-c2cccc(OCC(F)(F)F)c2)c2c1C[C@H](C(=O)N[C@@]1(C)CCS(=O)(=O)C1)CC2 [Example 35, (R)-1-isopropyl-N-((S)-3-methyl-1,1-dioxidotetrahydrothiophen-3-yl)-3-(3-(2,2,2-trifluoroethoxy)phenyl)-4,5,6,7-tetrahydro-1H-indazole-6-carboxamide], CC(C)n1nc(-c2cc(OCC(F)(F)F)ncc2F)c2c1C[C@H](C(=O)N[C@@]1(C)CCS(=O)(=O)C1)CC2 [Example 44, (R)-3-(5-fluoro-2-(2,2,2-trifluoroethoxy)pyridin-4-yl)-1-isopropyl-N-((S)-3-methyl-1,1-dioxidotetrahydrothiophen-3-yl)-4,5,6,7-tetrahydro-1H-indazole-6-carboxamide] is 6.6-fold lower in IC50: 35.2 nM for the first, 5.3 nM for the second. The second is the more potent here.

CC(C)n1nc(-c2cc(OC3CC3)ncc2F)c2c1C[C@H](C(=O)NC1(C)CCS(=O)(=O)CC1)CC2 [Example 37, (R)-3-(2-cyclopropoxy-5-fluoropyridin-4-yl)-1-isopropyl-N-(4-methyl-1,1-dioxidotetrahydro-2H-thiopyran-4-yl)-4,5,6,7-tetrahydro-1H-indazole-6-carboxamide] and CC(C)Oc1cc(-c2nn(C(C)C)c3c2CC[C@@H](C(=O)NC2(C)CCS(=O)(=O)CC2)C3)c(F)cn1 [Example 38, (R)-3-(5-fluoro-2-isopropoxypyridin-4-yl)-1-isopropyl-N-(4-methyl-1,1-dioxidotetrahydro-2H-thiopyran-4-yl)-4,5,6,7-tetrahydro-1H-indazole-6-carboxamide] are within 1.5-fold of each other in IC50: 93.2 nM for the first, 74.3 nM for the second.

Going from CCOc1cc(-c2nn(C(C)C)c3c2CC[C@@H](C(=O)NC2(C)CCS(=O)(=O)CC2)C3)c(Cl)cn1 [Example 39, (R)-3-(5-chloro-2-ethoxypyridin-4-yl)-1-isopropyl-N-(4-methyl-1,1-dioxidotetrahydro-2H-thiopyran-4-yl)-4,5,6,7-tetrahydro-1H-indazole-6-carboxamide] to CC(C)n1nc(-c2cc(OCC(F)F)ncc2F)c2c1C[C@H](C(=O)NC1(C)CCS(=O)(=O)CC1)CC2 [Example 40, (R)-3-(2-(2,2-difluoroethoxy)-5-fluoropyridin-4-yl)-1-isopropyl-N-(4-methyl-1,1-dioxidotetrahydro-2H-thiopyran-4-yl)-4,5,6,7-tetrahydro-1H-indazole-6-carboxamide], the IC50 falls from 7.7 nM to 4.6 nM (1.7-fold). The second is the more potent here.

Compared with CC(C)n1nc(-c2cc(OC(F)F)ncc2F)c2c1C[C@H](C(=O)N[C@@]1(C)CCS(=O)(=O)C1)CC2 [Example 41, (R)-3-(2-(difluoromethoxy)-5-fluoropyridin-4-yl)-1-isopropyl-N-((S)-3-methyl-1,1-dioxidotetrahydrothiophen-3-yl)-4,5,6,7-tetrahydro-1H-indazole-6-carboxamide], CC(C)n1nc(-c2cc(OCC(F)(F)F)ncc2F)c2c1C[C@H](C(=O)NC1(C)CCS(=O)(=O)CC1)CC2 [Example 45, (R)-3-(5-fluoro-2-(2,2,2-trifluoroethoxy)pyridin-4-yl)-1-isopropyl-N-(4-methyl-1,1-dioxidotetrahydro-2H-thiopyran-4-yl)-4,5,6,7-tetrahydro-1H-indazole-6-carboxamide] is 7.6-fold lower in IC50: 139 nM for the first, 18.4 nM for the second.

First: CC(C)n1nc(-c2cc(OC(F)F)cnc2C(F)F)c2c1C[C@H](C(=O)NC1(C)CCS(=O)(=O)CC1)CC2 [Example 42, (R)-3-(5-(difluoromethoxy)-2-(difluoromethyl)pyridin-3-yl)-1-isopropyl-N-(4-methyl-1,1-dioxidotetrahydro-2H-thiopyran-4-yl)-4,5,6,7-tetrahydro-1H-indazole-6-carboxamide]
Second: [2H]C([2H])([2H])C([2H])(n1nc(-c2cc(OC(F)F)ccc2F)c2c1C[C@H](C(=O)NC1(C)CCS(=O)(=O)CC1)CC2)C([2H])([2H])[2H] [Example 46, (R)-3-(5-(difluoromethoxy)-2-fluorophenyl)-N-(4-methyl-1,1-dioxidotetrahydro-2H-thiopyran-4-yl)-1-(propan-2-yl-d7)-4,5,6,7-tetrahydro-1H-indazole-6-carboxamide]
The IC50 of the first is 7.8-fold higher: 296 nM for the first, 37.9 nM for the second. The second is the more potent here.

In the case of [2H]C([2H])([2H])C([2H])(n1nc(-c2cc(OCC)ncc2F)c2c1C[C@H](C(=O)NC1(C)CCS(=O)(=O)CC1)CC2)C([2H])([2H])[2H] [Example 47, (R)-3-(2-ethoxy-5-fluoropyridin-4-yl)-N-(4-methyl-1,1-dioxidotetrahydro-2H-thiopyran-4-yl)-1-(propan-2-yl-d7)-4,5,6,7-tetrahydro-1H-indazole-6-carboxamide], the IC50 is reported as 65.9 nM.
